Assays:
RyR2 = conditions: cardiac cells; cited from earlier work
[1] = tested on: subiculum pyramidal neurons of 5×FAD+/− mice; assay: Nissl staining, neuronal cell loss in 5×FAD+/− mice; assay type: in vivo, mouse; conditions: 6-7 months old 5×FAD+/− mice, pre-treatment 3.2 mg/kg/day for 1 month; vs DMSO
Description: Adult genetically engineered mice, 5×FAD^+/− (Oakley et al., 2006), RyR2-E4872Q^+/− (EQ^+/−) (Chen et al., 2014), 5×FAD^+/−/RyR2-E4872Q^+/− (5×FAD^+/−/EQ^+/−), and wildtype (WT) littermates of both sexes were used. R-carvedilol (R-CV) (at doses of 0.8, 1.6 or 3.2 mg/kg/day), racemic carvedilol (3.2 mg/kg/day), and vehicle control (DMSO) were delivered to 5×FAD^+/− mice in drinking water for one month, starting at different ages before (2-3 months old) or after (3-4 months old) the occurrence of AD pathologies (Oakley et al., 2006). To assess the effects of genetically and pharmacologically limiting RyR2 open time on the prevention and rescue of AD deficits in different stages (early, moderate, and late) of AD progression, animals at different ages (from 2-15 months) were used. As reported (Oakley et al., 2006), there was an age-dependence of AD progression in the 5×FAD^+/− mice. No sex-dependent differences in AD progression in these mice was observed. For 2-photon Ca^2+ imaging experiments, 5×FAD, RyR2 WT, and RyR2 mutant mice were cross-bred with the heterozygous Thy1-GCaMP6f transgenic mice (Chen et al., 2012; Chen et al., 2013) (GP5.17, JAX 025393) to express the GCaMP6f Ca^2+ sensing probe (driven by the Thy1 promotor) in hippocampal neurons in each of the genotypes used. […]

[2] = tested on: RyR2-mediated Ca2+ release; assay: Ex vivo two-photon Ca2+ imaging of caffeine-induced Ca2+ release in CA1 neurons of brain slices from treated 5×FAD+/− mice; parameters: species or system mouse; conditions: CA1 pyramidal neurons in brain slices of 4-5 months old 5×FAD+/− mice treated for 1 month; caffeine 40 mM; vs DMSO-treated
[3] = tested on: hippocampal CA1 and subiculum neurons of 3×TG+/− mice; assay: Nissl staining, neuron density in 3×TG+/− mice; assay type: in vivo, mouse; conditions: 12-15 months old 3×TG+/− mice, 3.2 mg/kg/day for one month; vs DMSO
Description: Genetically engineered mice of 12-15 months old, 3×TG+/− (Oddo et al., 2003), RyR2-E4872Q+/− (EQ+/−)(Chen et al., 2014), 3×TG+/−/RyR2-E48720+/− (3×TG+/−/EQ+/−), and WT littermates of both sexes were used. Sex differences, which may produce biological variables, were not investigated in this study. R-carvedilol (R-CV) (3.2 mg/kg/day) and vehicle control (DMSO) were delivered to 3×TG+/− mice in drinking water for one month. As shown previously, only heterozygous RyR2-E4872Q+/− mutant mice were produced as homozygous E4872Q+/+mutation is embryonic lethal (Chen et al., 2014). Functional RyR2s are tetrameric channels formed by 4 RyR2 monomers. The heterozygous E4872Q+/− mutant mice (harboring one WT allele and one E4872Q mutant allele) will produce a mixture of homo- and hetero-tetrameric channels that contain the WT, E48720 mutant, or both WT/E4872Q mutant monomers. Thus, the RyR2-E4872Q mutation can exert its negative impact not only on the function of the E4872Q homo-tetramers, but also on the function of the WT monomer in the WT/E4872Q hetero-tetrameric channels.
For the Nissl staining, paraffin-embedded brain tissue sections (5 μm) were immersed in xylene (5 min, 2 times), rehydrated in absolute ethanol (5 min, 2 times) followed by 95%, 75% and 50% solutions of ethanol in water (5 min each), then washed in distilled water for 2 times, 5 min each. […]

[4] = tested on: hippocampal CA3-CA1 pathway of 5×FAD+/− mice; assay: Long-term potentiation / fEPSP recording in hippocampal slices from treated 5×FAD+/− mice; assay type: in vivo, mouse; conditions: vs DMSO
Description: Adult genetically engineered mice, 5×FAD^+/− (Oakley et al., 2006), RyR2-E4872Q^+/− (EQ^+/−) (Chen et al., 2014), 5×FAD^+/−/RyR2-E4872Q^+/− (5×FAD^+/−/EQ^+/−), and wildtype (WT) littermates of both sexes were used. R-carvedilol (R-CV) (at doses of 0.8, 1.6 or 3.2 mg/kg/day), racemic carvedilol (3.2 mg/kg/day), and vehicle control (DMSO) were delivered to 5×FAD^+/− mice in drinking water for one month, starting at different ages before (2-3 months old) or after (3-4 months old) the occurrence of AD pathologies (Oakley et al., 2006). To assess the effects of genetically and pharmacologically limiting RyR2 open time on the prevention and rescue of AD deficits in different stages (early, moderate, and late) of AD progression, animals at different ages (from 2-15 months) were used. […] For 2-photon Ca^2+ imaging experiments, 5×FAD, RyR2 WT, and RyR2 mutant mice were cross-bred with the heterozygous Thy1-GCaMP6f transgenic mice (Chen et al., 2012; Chen et al., 2013) (GP5.17, JAX 025393) to express the GCaMP6f Ca^2+ sensing probe (driven by the Thy1 promotor) in hippocampal neurons in each of the genotypes used.
Schaffer collateral fibers were stimulated at the CA3 subfield to record field excitatory postsynaptic potentials (fEPSPs) in the CA1 stratum radiatum of transverse hippocampal slices ([…]) from all genotypes and drug-treated mice at different ages. After recovering at room temperature for 1 h (or 2 h for brain slices from drug-treated mice), hippocampal slices were allowed to recover in the recording chamber for additional 10 min. To evaluate basal synaptic transmission, different stimulation strengths (0 μA to 200 μA in steps of 20 μA) were applied and plotted fEPSP slopes versus the current input to compare the slope of input/output (I/O) curves of fEPSP. In the experiments that followed, stimulus current was adjusted so that fEPSP stabilized at 40-50% of maximum. Baseline was recorded for at least […] until the differences among fEPSP slopes were within 10%. Long-term potentiation (LTP) was induced using a tetanic high-frequency stimulation (HFS; 4 trains of 100 pulses at 100 Hz, with 20-sec intervals). Synaptic responses were recorded for at least 60 min after tetanization and quantified as the slope of the evoked fEPSP as percentage of the baseline.

Compound: COc1ccccc1OCCNC[C@@H](O)COc1cccc2[nH]c3ccccc3c12 [R-carvedilol, R-(+)-carvedilol]
- RyR2 open time (RyR2): shortened
- subiculum neuronal cell loss [1]: protected against
- Caffeine-induced Ca2+ release [2]: markedly reduced
- density of neurons in the hippocampal CA1 region [3]: no significant difference
- density of neurons in the subiculum area [3]: significantly higher
- LTP impairment ([4]; 3.2 mg/kg/day for one month started at 2-3 months of age (before AD symptoms), slices at 3-4 months): prevented
- LTP impairment ([4]; 3.2 mg/kg/day for one month started at 3-4 months of age (after AD symptom), slices at 4-5 months): rescued
- reduced basal synaptic transmission (fEPSP slope vs stimulus intensity) ([4]; 5×FAD+/− hippocampal brain slices, 3-4, 4-5 and 6-7 months old treated mice): restored
- LTP deficit ([4]; 6-7 months old 5×FAD+/− mice after 1-month treatment with 3.2 mg/kg/day): rescues
